Results on four molecules are retold here after BindingDB's records for doi:10.1021/jm00034a016 (Merck Research Laboratories, 1994).

This assay addresses T1, Dimer of Gag-Pol polyprotein [489-587] (Human immunodeficiency virus 1, UniProt P12497).
T1 construct: 489-587
The assay can be described thus: Protease Inhibition Assay. The note with it: pH 5.5; 30 °C. The protocol: The IC50 values for the compounds were determined using purified HIV-1 Protease. Inhibition of the cleavage of the peptide H-Val-Ser-Gln-Asn-(L-beta-napthylalanine)-Pro-Ile-Val-OH was assessed at 30 °C, pH = 5.5 with [Enzyme] = 30 pM for 1 h, using HPLC with UV detection for quantification of the products. For the IC50 data a substrate concentration of 0.4 mg/mL was used, and data was fit to a four parameter sigmoidal equation.

pIC50: −log10 of the molar value.

One may read the pIC50 as the IC50 on a negative log10 scale, so that one unit is a factor of ten. Take `C[C@@H]1OCC[C@@H]1OC(=O)N[C@@H](Cc1ccccc1)[C@H](O)CN1C[C@H]2CCCC[C@H]2C[C@H]1C(=O)NC(C)(C)C` [(2S,3S)-2-methyloxolan-3-yl N-[(2S,3R)-4-[(3S,4aS,8aS)-3-(tert-butylcarbamoyl)-decahydroisoquinolin-2-yl]-3-hydroxy-1-phenylbutan-2-yl]carbamate]: the negative-log IC50 (pIC50) is 7.28.

Molecule `C[C@H]1OCC[C@H]1OC(=O)N[C@@H](Cc1ccccc1)[C@H](O)CN1C[C@H]2CCCC[C@H]2C[C@H]1C(=O)NC(C)(C)C` [Isoquinoline furanyl urethane analog] showed a negative-log IC50 (pIC50) of 6.77.

`C[C@H]1[C@@H](OC(=O)N[C@@H](Cc2ccccc2)[C@H](O)CN2C[C@H]3CCCC[C@H]3C[C@H]2C(=O)NC(C)(C)C)CCS1(=O)=O` [N-tert-butyldecahydro-2-[2(R)-hydroxy-4-phenyl-3(S)-[[[[2 (S)-methyl-(3 S)-l , l-dioxotetrahydrothiophene-3-yl]-oxy]carbonyl]amino]butyl]-(4aS,8aS)-isoquinoline-3(S)-carboxamide] gave a pIC50 of 7.94.

The molecule `C[C@@H]1[C@H](OC(=O)N[C@@H](Cc2ccccc2)[C@H](O)CN2C[C@H]3CCCC[C@H]3C[C@H]2C(=O)NC(C)(C)C)CCS1(=O)=O` [N-tert-butyldecahydro-2-[2(R)-hydroxy-4-phenyl-3(S)-[[[[4 (S)-methyl-(3 R)-l , l-dioxotetrahydrothiophene-3-yl]-oxy]carbonyl]amino]butyl]-(4aS,8aS)-isoquinoline-3(S)-carboxamide] gave a pIC50 of 7.65.
